Test results taken from patent US20230305023A1, “METHODS OF TREATMENT AND DIAGNOSTIC OF PATHOLOGICAL CONDITIONS ASSOCIATED WITH INTENSE STRESS” (INSERM (INSTITUT NATIONAL DE LA SANTÉ ET DE LA RECHERCHE …, priority 2020, published 2023).
“Also recorded” adds a separate entry of the source.

What was measured:
[1] = system: C57BL/6J mice; assay: Adaptive vs maladaptive (PTSD-like) fear memory, fear conditioning procedure; type: in vivo
Source text: Surgical procedure. Male C57BL/6J mice {n=20 in Experiment 1 (FIGS. 3a-d), n=75 in Experiment 2 (FIG. 4), n=40 in Experiment 3 (FIGS. 5a-d) and n=48 in Experiment 4 (FIGS. 5e-h)} 3-4 months old (Charles River Laboratory, France) were used. Mice were surgically-implanted bilaterally 1 mm above the dorsal hippocampus (A/P, -2 mm; M/L, ±1.3 mm; D/V, 0.9 mm; relative to dura and bregma) following to Franklin and Paxinos’s mouse brain atlas (25) then allowed to recover for 8 days before the behavioral experiments.
Adaptive vs maladaptive (PTSD-like) fear memory. […] In contrast, Cort-injected mice will display a maladaptive (PTSD-like) memory attested by an abnormally high fear response to the irrelevant tone (cue-based hypermnesia) together with a decreased conditioned fear to the conditioning context (contextual amnesia) (5). • Memory tests - After fear conditioning, each animal was returned to its home cage and 24 h later, all mice were submitted to two memory tests during which freezing behavior, defined as a lack of any movement except for respiratory-related movements (29), was measured and used as an index of conditioned fear.
Drug injections. Immediately after the acquisition of fear conditioning, mice were randomly divided into groups firstly according to first their systemic injection of Cort and secondly their specific intra-hippocampal infusion. […] Vehicle (NaCl 0.9%, n=8), 2. […] Vehicles (aCSF + NaCl 0.9%, n=15), 2. […] Vehicles (aCSF + NaCl 0.9%, n=8), 2. […] Vehicles (aCSF + DMSO, n=12), 2.
PAI-1 and BDNF were diluted in artificial CSF (aCSF) and Tiplaxtinin in 1.6 % dimethyl sulfoxide (DMSO) and then diluted in aCSF. Bilateral infusions of 0.3 µl/side were administered into the dorsal hippocampus immediately after acquisition of fear conditioning at a constant rate (0.1 µl/min).

[2] = system: dorsal hippocampal slices; assay: Protein expression in dorsal hippocampal slices incubated with corticosterone (western blot); type: cell-based, Sprague-Dawley rats
Description: Briefly, adult male Sprague-Dawley rats (2-3 months old n=18, Charles River Laboratory, France) were used. Rats were then anesthetized with isoflurane and transcardially perfused with nearly frozen modified artificial cerebrospinal fluid (CSF) with 3 mM kynurenic acid. The modified CSF for perfusion contained: (in mM) 87 NaCl, 75 Sucrose, 25 Glucose, 5 KCl, 21 MgCl2, 0.5 CaCl2 and 1.25 NaH2PO4. After perfusion, the brains were quickly removed and sliced (300 µm) in the coronal plane using a vibratome (Campden Instruments, UK). Immediately after cutting, slices were stored for 40 min at 32° C. in CSF ((in mM): 130 NaCl, 11 Glucose, 2.5 KCl, 2.4 MgCl2, 1.2 CaCl2, 23 NaHCO3, 1.2 NaH2PO4), equilibrated with 95% O2 / 5% CO2 then stored at room temperature for the rest of the experiment. […] Dorsal hippocampi were isolated, and proteins were extracted as previously described (14;16).
Protein extraction from brain tissues and immunoblotting analysis. A detailed description of protein extraction and immunoblotting analysis has been reported previously (14-16;20;21). Briefly, protein sample extracts from PC12 cells and mouse and rat hippocampi were performed in RIPA buffer containing protease and phosphatase inhibitors (#P8340 and #P0044, Sigma, USA) before being subjected to immunoblotting experiments. […] Rabbit polyclonal anti-PAI-1 antibodies were from Lifespan Biosciences (LSBio#C81062, 1/1000, WA, USA) and Epitomics (#3917-1, 1/3000, CA, USA), anti-tPA (#T5600-05G; 1/5000) was from US Biologicals (MA, USA), anti-Erk1/2^MAPK (#06-182; 1/50000) was from Millipore (MA, USA), anti-Phospho-Erk1/2^MAPK (#9101S; 1/1000) was from CST (MA, USA). Rabbit monoclonal antibodies anti-Phospho-Erk1/2^MAPK (#4370; 1/5000) was from CST (MA, USA), anti-Phospho-TrkB (#2149-1; 1/5000) was from Epitomics (CA, USA), anti-TrkB (#610101; 1/2000) was from BD Biosciences (NJ, USA). Mouse monoclonal anti-Neuronal Class III β-Tubulin (TUJ1) (#MMS-435P; 1/20000) was from Eurogentec (Belgium), anti-α-tubulin (#N356, 1/50000) was from Amersham Life Sciences (Del, USA). CST provided secondary antibodies: anti-rabbit IgG, HRP-linked antibody (#7074, 1/5000) and anti-mouse IgG, HRP-linked antibody (#7076, 1/20000). In all experiments, βIII-tubulin or α-tubulin measures were used as a loading control. X-Ray films (Kodak, USA) were quantified by densitometry (optical density; OD) using a GS-800 scanner coupled with Quantity One software (Bio-Rad, CA, USA).

[3] = system: PC12 cells; assay: PAI-1 expression in PC12 cells treated with corticosterone (qPCR, western blot); type: cell-based, rat; details: Cort 100 and 1000 nM, 3 h
Description: Chemicals. […] Millipore (USA) provided the recombinant human BDNF (CAS Nb 218441-99-7, #GF029, 100 ng/side) and tPA inhibitor; stable recombinant mutant of human Type 1 Plasminogen Activator Inhibitor (PAI-1; CAS Nb: 140208-23-7, #528208, ranging from 30 to 240 ng/side) (16;18). The small-molecule inhibitor of PAI-1 activity Tiplaxtinin (PAI-039; CAS Nb: 393105-53-8, #1383, 5 ng/side) was provided by Axon MEDCHEM (The Netherlands).
Cell culture. PC12 cell line (ATCC CRL-1721) derived from a transplantable rat pheochromocytoma was used (14;16). […]
Quantitative PCR analysis. […] RNA was processed and analyzed using an adapted version of published methods (23). cDNA was synthesized from 2 µg of total RNA using RevertAid Premium Reverse Transcriptase (Fermentas, Thermo Fisher Scientific, USA) and primed with oligo-dT primers (Fermentas, Thermo Fisher Scientific, USA) and random primers (Fermentas, Thermo Fisher Scientific, USA). qPCR was perfomed using a LightCycler® 480 Real-Time PCR System (Roche, Meylan, France). qPCR reactions were done in duplicate for each sample, using transcript-specific primers, cDNA (4 ng) and LightCycler 480 SYBR Green I Master (Roche) in a final volume of 10 µl. The PCR data were exported and analyzed in a computer-based tool (Gene Expression Analysis Software Environment) developed at the Neurocentre Magendie (France). […]

[4] = molecular target: T1, mouse PAI-1 (Mus musculus, UniProt P22777); details: cited from earlier work
T1 sequence (P22777 23-402): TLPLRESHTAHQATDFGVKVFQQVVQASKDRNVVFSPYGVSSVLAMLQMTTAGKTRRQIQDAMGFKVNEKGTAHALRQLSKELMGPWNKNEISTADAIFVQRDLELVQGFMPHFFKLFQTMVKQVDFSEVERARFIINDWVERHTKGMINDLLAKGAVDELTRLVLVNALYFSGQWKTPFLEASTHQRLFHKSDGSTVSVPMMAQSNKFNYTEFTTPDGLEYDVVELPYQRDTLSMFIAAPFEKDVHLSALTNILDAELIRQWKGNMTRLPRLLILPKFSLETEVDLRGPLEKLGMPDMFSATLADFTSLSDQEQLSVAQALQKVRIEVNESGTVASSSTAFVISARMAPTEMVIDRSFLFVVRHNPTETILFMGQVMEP

[5] = system: rat; details: in vivo; cited from earlier work
[6] = system: rat; details: cited from earlier work
[7] = molecular target: T2, rat PAI-1 (Rattus norvegicus, UniProt P20961); details: cited from earlier work
T2 sequence (P20961 24-402): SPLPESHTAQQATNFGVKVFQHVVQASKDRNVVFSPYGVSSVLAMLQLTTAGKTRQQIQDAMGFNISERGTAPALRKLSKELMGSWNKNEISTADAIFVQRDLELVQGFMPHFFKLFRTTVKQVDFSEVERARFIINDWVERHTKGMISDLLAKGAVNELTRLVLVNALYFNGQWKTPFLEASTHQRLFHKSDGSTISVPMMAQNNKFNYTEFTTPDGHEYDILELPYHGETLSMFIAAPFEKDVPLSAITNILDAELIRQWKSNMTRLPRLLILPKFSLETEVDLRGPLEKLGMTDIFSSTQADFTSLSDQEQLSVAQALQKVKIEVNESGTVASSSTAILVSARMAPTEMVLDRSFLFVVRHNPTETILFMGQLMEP

[8] = molecular target: PAI-1 (Homo sapiens, UniProt P05121); details: dual mechanism of action; cited from earlier work
[9] = cited from earlier work
[10] = system: rats; details: cited from earlier work
[11] = system: TGF-B1-induced lung fibrosis; details: in vivo; cited from earlier work
[12] = system: nonhuman primates; details: cited from earlier work
[13] = in vivo; cited from earlier work
[14] = system: plasminogen activator inhibitor type 1 (PAI-1); details: in vivo; cited from earlier work

Chain of PAI-1 (P05121 24-402, species assumed): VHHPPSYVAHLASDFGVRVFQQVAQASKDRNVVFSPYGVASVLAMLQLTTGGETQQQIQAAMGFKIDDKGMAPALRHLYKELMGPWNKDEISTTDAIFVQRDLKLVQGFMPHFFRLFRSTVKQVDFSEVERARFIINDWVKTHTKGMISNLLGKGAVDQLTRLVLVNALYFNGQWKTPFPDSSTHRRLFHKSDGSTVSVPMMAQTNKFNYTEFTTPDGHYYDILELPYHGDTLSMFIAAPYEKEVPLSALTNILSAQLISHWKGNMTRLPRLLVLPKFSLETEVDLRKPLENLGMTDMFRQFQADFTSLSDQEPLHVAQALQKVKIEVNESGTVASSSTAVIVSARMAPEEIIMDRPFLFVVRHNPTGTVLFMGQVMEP

Question: With `C[C@]12C[C@H](O)[C@H]3[C@@H](CCC4=CC(=O)CC[C@@]43C)[C@@H]1CC[C@@H]2C(=O)CO` [Cort, corticosterone] as the molecule, how does the PTSD-like memory impairments ([1]; Cort 2 mg/kg i.p. immediately after conditioning) read?
Answer: Its PTSD-like memory impairments is “PTSD-like memory impairments appeared”.

Question: What about the “tPA, P-TrkB and P-Erk1/2MAPK proteins” value ([2]; Cort 10 nM, 1 h after treatment) of the same molecule?
Answer: Its value is “increase”.

Question: And the PAI-1 protein ([2]; Cort 10 nM, 3 h after treatment)?
Answer: Its PAI-1 protein is “increase”.

Question: And the PAI-1 protein ([2]; Cort 1000 nM, 1 h after treatment)?
Answer: Its PAI-1 protein is “early increase”.

Question: What about the “tPA, P-TrkB and P-Erk1/2MAPK proteins” value ([2]; Cort 1000 nM, after 3 h treatment) of the same molecule?
Answer: The value was “suppression of the increase”.

Question: What about the “expression of PAI-1 mRNA” value ([3]; qPCR) of the same molecule?
Answer: Its value is “strongly increased”.

Question: What about the “expression of PAI-1 protein” value ([3]; western blot) of the same molecule?
Answer: Its value is “strongly increased”.

Question: Which results are given for `O=C1S/C(=C\c2cc(O)c(O)c(O)c2)C(=O)N1Cc1ccc(Cl)c(Cl)c1` [IMD-1622, 3-(3,4-dichlorobenzyl)-5-(3,4,5-trihydroxy-benzylidene)-thiazolidine-2,4-dione]?
Answer: activity of mouse PAI-1 [4]: inhibit; rat autoimmune myocarditis [5]: suppresses; thrombus weight ([6]; compared to control): decreased; intimal thickening ([6]; rat, in vivo): suppressed; activity of rat PAI-1 [7]: inhibit

Question: For `CCCCCc1c(-c2ccc3cc(OCc4nnn[nH]4)ccc3c2)n(Cc2ccccc2)c2ccccc12` [PAI-749, 1-benzyl-3-pentyl-2[-(1H-tetrazol-5-ylmethoxy)naphthalene-2-yl]-1Hindole], which PAI-1 activity [8] is on record?
Answer: The PAI-1 activity was “neutralize PAI-1 activity”.

Question: For `O=C(CCCCC(=O)Nc1scc(-c2cccs2)c1C(=O)O)Nc1scc(-c2cccs2)c1C(=O)O` [TM5007], which oral pharmacokinetic profile [9] is on record?
Answer: Its oral pharmacokinetic profile is “not ideal”.

Question: With `O=C(COCC(=O)N1CCN(C(c2ccccc2)c2ccccc2)CC1)Nc1ccc(Cl)cc1C(=O)[O-].[Na+]` [TM5275] as the molecule, how does the antithrombotic ability [10] read?
Answer: Its antithrombotic ability is “effective antithrombotic ability”.

Question: And the TGF-B1-induced lung fibrosis [11]?
Answer: The TGF-B1-induced lung fibrosis was “blocks”.

Question: What about the antithrombotic ability [12] of the same molecule?
Answer: The antithrombotic ability was “effective antithrombotic ability”.

Question: What about the oral pharmacokinetic profile [9] of the same molecule?
Answer: Its oral pharmacokinetic profile is “improved oral pharmacokinetic properties”.

Question: For `O=C(O)C(=O)c1cn(Cc2ccccc2)c2ccc(-c3ccc(OC(F)(F)F)cc3)cc12` [Tiplaxtinin, 1H-indole-3-acetic acid, a-oxo-1-(phenylmethyl)-5-(4-trifluoromethoxyphenyl)], which “appearance of PTSD-like memory in Cort-treated animals” value ([1]; Tiplaxtinin 5 ng/side intra-hippocampal immediately after conditioning, Cort 2 mg/kg i.p., freezing tested 24 h later) is on record?
Answer: The value was “prevented the appearance of PTSD-like memory; also recorded: normalizes traumatic memory”.

Question: Which “benefit in PTSD over placebo” value [13] does the source give for `CNCCC(Oc1ccc(C(F)(F)F)cc1)c1ccccc1` (stereo not drawn) [fluoxetine] here?
Answer: The value was “small to modest benefit”.

Question: Which “benefit in PTSD over placebo” value [13] does the source give for `Fc1ccc([C@@H]2CCNC[C@H]2COc2ccc3c(c2)OCO3)cc1` [paroxetine] here?
Answer: The value was “small to modest benefit”.

Question: Which “benefit in PTSD over placebo” value [13] does the source give for `COc1ccc(C(CN(C)C)C2(O)CCCCC2)cc1` (stereo not drawn) [venlafaxine] here?
Answer: Its value is “small to modest benefit”.

Question: Which “circulating levels of plasminogen activator inhibitor type 1 (PAI-1)” value [14] does the source give for Defibrotide here?
Answer: The value was “reduces”.

B1: mature BDNF: recombinant human BDNF, CAS 218441-99-7 (protein, UniProt P23560 19-247, looked up)
Neurotrophic factor BDNF …: APMKEANIRGQGGLAYPGVRTHGTLESVNGPKAGSRGLTSLADTFEHVIEELLDEDQKVRPNEENNKDADLYTSRVMLSSQVPLEPPLLFLLEEYKNYLDAANMSMRVRRHSDPARRGELSVCDSISEWVTAADKKTAVDMSGGTVTVLEKVPVSKGQLKQYFYETKCNPMGYTKEGCRGIDKRHWNSQCRTTQSYVRALTMDSKKRIGWRFIRIDTSCVCTLTIKRGR
Question: For B1, which “reversal of the effect of PAI-1 on fear memory” value ([1]; mature BDNF 100 ng/side concomitant with PAI-1 240 ng/side, intra-hippocampal) is on record?
Answer: Its value is “completely reversed”.
